# Measured values reported in patent US7972815B2, “Method of producing sugar chain using human G4 polypeptide” (Kyowa Hakko Kirin Co., Ltd., priority 1999, dated 2011).
# Read-outs that look alike come from different tables or passages of the source.
# Assays:
# [1] = target: T1, β1,3-N-acetylglucosaminyl transferase (G7) (Homo sapiens, UniProt Q9C0J1); experiment: Substrate specificity of G7 with pyridylaminated oligosaccharides; format: biochemical; details: 16 hours; for Relative activity (%): pyridylaminated substrate, 37° C., activity for LNnT defined as 100%
# T1 construct: made in house; host or cells: Sf21 insect cells infected with recombinant baculovirus from pVL1393-F2G7
# Procedure: The method shown in Example 8 was used as the activity measuring method. Specifically, after the reaction at 37° C. for 14.5 hours in 30 μl of an assay solution [200 mmol/l of MOPS (pH 7.5), 20 mmol/l of UDP-GlcNAc (SIGMA), 20 mmol/l of MnCl2, 50 μmol/l of pyridylaminated sugar chain substrate and 15 μl of the above eluate], products were detected by HPLC. As substrates, LNnT, lacto-N-tetraose (Galβ1-3GlcNAcβ1-3Galβ1-4Glc, hereinafter referred to as “LNT”), lacto-N-fucopentaose II (Galβ1-3(Fucα1-4)GlcNAcβ1-3Galβ1-4Glc, hereinafter referred to as “LNFP-II”), lacto-N-fucopentaose III (Galβ1-4(Fucα1-3)GlcNAcβ1-3Galβ1-4Glc, hereinafter referred to as “LNFP-III”), lacto-N-fucopentaose V (Galβ1-3GlcNAcβ1-3Galβ1-4(Fucα1-3)Glc, hereinafter referred to as “LNFP-V”) and lacto-N-difucohexaose II (Galβ1-3(Fucα1-4)GlcNAcβ1-3Galβ1-4(Fucα1-3)Glc, hereinafter referred to as “LNDFH-II”) (all manufactured by Oxford Glycosystems) were used after fluorescently labeling them with aminopyridine. Fluorescence labeling of these substrates were carried out in accordance with the usual method [Agric. Biol. Chem., 54, 2169 (1990)].
# (§1) For each substrate, the reaction was carried using the assay solution with or without UDP-GlcNAc (sugar donor), and then HPLC was carried out and peaks appeared only in the assay solution containing UDP-GlcNAc were defined as products.
# The assay solution after completion of the reaction was treated at 100° C. for 5 minutes and then centrifuged at 10,000×g for 5 minutes, and a portion (5 μl) of the thus obtained supernatant was applied to HPLC.
# The HPLC was carried out by using TSK-gel ODS-80Ts column (4.6×300 mm; Tosoh); 0.02 mol/l ammonium acetate buffer (pH 4.0) was used as the eluate at an elution temperature of 50° C. and at a flow rate of 0.5 ml/min.
# Products were detected by using a fluorescence spectrum photometer FP-920 (JASCO Corporation) (excitation wavelength 320 nm, radiation wavelength 400 nm).
# Examination of the substrate specificity of a β1,3-N-acetylglucosaminyl transferase (G7) was carried out using the FLAG peptide-fused G7 polypeptide purified in Example 17.
# Substrate specificity of the FLAG peptide-fused G7 polypeptide was examined by the method shown in Example 11(1). The reaction was carried out at 37° C. for 16 hours.
# [2] = target: T2, β1,3-N-acetylglucosaminyl transferase (G4) (Homo sapiens, UniProt Q9Y2A9, R328H); experiment: Substrate specificity of G4 with unlabeled oligosaccharides (HPAE/PAD); format: biochemical; details: for Relative activity (%): unlabeled substrate, 37° C., 16 hours, activity on LNnT defined as 100%
# T2 construct: made in house; host or cells: Sf21 insect cells infected with recombinant baculovirus from pVL1393-F2G4
# T2 sequence (Q9Y2A9 38-372 R328H): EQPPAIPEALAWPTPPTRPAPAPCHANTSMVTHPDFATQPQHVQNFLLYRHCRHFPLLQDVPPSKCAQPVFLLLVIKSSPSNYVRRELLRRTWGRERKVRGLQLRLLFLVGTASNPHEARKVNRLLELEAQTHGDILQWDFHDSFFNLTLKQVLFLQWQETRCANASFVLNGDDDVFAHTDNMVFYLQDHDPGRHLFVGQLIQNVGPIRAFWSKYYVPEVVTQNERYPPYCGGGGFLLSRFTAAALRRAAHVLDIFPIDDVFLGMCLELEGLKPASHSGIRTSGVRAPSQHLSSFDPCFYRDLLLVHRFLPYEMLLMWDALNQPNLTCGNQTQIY
# Procedure: (§2) The reaction using the glycosyltransferase was carried out as follows. The reaction was carried out at 37° C. for 16 hours in 40 μl of an assay solution [50 mmol/l MOPS (pH 7.5), 5 mmol/l UDP-GlcNAc (SIGMA), 5 mmol/l MnCl2, […] and 10 μl of the above eluate]. Next, the reaction solution was treated at 100° C. for 5 minutes and then centrifuged at 10,000×g for 20 minutes to obtain the supernatant, and a portion thereof was analyzed using HPAE/PAD (High Performance Anion Pulsed Amperometoric Detection; manufactured by DIONEX). The specific method was carried out in the usual way [Anal. Biochem., 189, 151 (1990), J. Biol. Chem., 273, 433 (1998)].
# (§3) As substrates, the following unlabeled oligosaccharides were used: lactose (Galβ1-4Glc), N-acetyllactosamine (Galβ1-4GlcNAc, hereinafter referred to as “LacNAc” in some cases), LNnT, LNT and lacto-N-neohexaose (Galβ1-4GlcNACβ1-3Galβ1-4GlcNAcβ1-3Galβ1-4Glc, hereinafter referred to as “LNnH”).
# as §1
# (§4) In identifying the product, coincidence of its elution time with that of a standard sugar chain was used as the index. As the standard sugar chains, GlcNAcβ1-3Galβ1-4Glc, GlcNAcβ1-3Galβ1-4GlcNAc and GlcNAcβ1-3Galβ1-4GlcNAcβ1-3Galβ1-4Glc were used.
# [3] = target: T3, β3GnT (Homo sapiens, UniProt Q9NY97); details: reported values, Proc. Natl. Acad. Sci. USA, 96, 406 (1999), cited from earlier work
# T3 sequence (Q9NY97 1-397): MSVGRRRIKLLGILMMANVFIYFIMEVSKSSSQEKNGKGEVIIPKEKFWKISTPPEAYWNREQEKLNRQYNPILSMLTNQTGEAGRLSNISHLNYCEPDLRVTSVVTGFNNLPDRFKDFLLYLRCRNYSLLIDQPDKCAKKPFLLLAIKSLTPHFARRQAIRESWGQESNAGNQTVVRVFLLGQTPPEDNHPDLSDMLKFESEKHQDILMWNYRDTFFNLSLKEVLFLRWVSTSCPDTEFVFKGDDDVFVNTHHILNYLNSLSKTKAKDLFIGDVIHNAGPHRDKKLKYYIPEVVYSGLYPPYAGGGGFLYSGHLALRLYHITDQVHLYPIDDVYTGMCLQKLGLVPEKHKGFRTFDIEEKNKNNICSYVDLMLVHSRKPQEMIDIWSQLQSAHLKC
# [4] = target: T1, β1,3-N-acetylglucosaminyl transferase (G7); experiment: Substrate specificity of G7 with unlabeled oligosaccharides; format: biochemical; details: 15.5 hours; for Relative activity (%) G7: unlabeled substrate, 37° C., activity for LNnT defined as 100%
# Procedure: as §2, §3, §1, §4
# Substrate specificity of the FLAG peptide-fused G7 polypeptide was examined using the method shown in Example 11(2). The enzyme reaction was carried out at 37° C. for 15.5 hours.
# T1 sequence (Q9C0J1 56-378): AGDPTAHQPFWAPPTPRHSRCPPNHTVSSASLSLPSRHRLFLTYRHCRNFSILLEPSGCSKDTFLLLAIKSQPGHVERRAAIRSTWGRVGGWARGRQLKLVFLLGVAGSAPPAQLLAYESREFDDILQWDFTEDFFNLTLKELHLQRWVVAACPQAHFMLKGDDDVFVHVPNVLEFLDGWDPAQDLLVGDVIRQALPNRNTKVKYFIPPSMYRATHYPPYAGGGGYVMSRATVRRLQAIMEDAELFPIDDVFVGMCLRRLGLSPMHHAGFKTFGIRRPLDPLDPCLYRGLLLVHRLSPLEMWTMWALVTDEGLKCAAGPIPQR
conversion efficiency of the substrate into the product ([1]; pyridylaminated LNnT as substrate) [%],Relative activity (%) [1] [%],conversion ratio of the substrate into the product ([2]; unlabeled LNnT as substrate) [%],Relative activity (%) [2] [%],conversion efficiency of the substrate into the product ([4]; unlabeled LNnT as substrate) [%],Relative activity (%) G7 [4] [%],Compound,Relative activity (%) β3GnT ([3]; Table 4) [%],Relative activity (%) β3GnT ([3]; Table 6) [%]
3.76,100,1.7,100,3.07,100,"CC(=O)N[C@H]1[C@H](O[C@H]2[C@@H](O)[C@@H](CO)O[C@@H](O[C@H]3[C@H](O)[C@@H](O)C(O)O[C@@H]3CO)[C@@H]2O)O[C@H](CO)[C@@H](O[C@@H]2O[C@H](CO)[C@H](O)[C@H](O)[C@H]2O)[C@@H]1O (mixture of isomers) [LNnT, lacto-N-neotetraose]",100,100
–,7.6,–,114,–,0,"CC(=O)N[C@H]1[C@H](O[C@H]2[C@@H](O)[C@@H](CO)O[C@@H](O[C@H]3[C@H](O)[C@@H](O)C(O)O[C@@H]3CO)[C@@H]2O)O[C@H](CO)[C@@H](O)[C@@H]1O[C@@H]1O[C@H](CO)[C@H](O)[C@H](O)[C@H]1O (stereo partly shown) [LNT, lacto-N-tetraose]",6,6
